Experimental data published in PubChem BioAssay AID1963862 (Molecular Pharmacology Branch, DTP, NCI, 2024).

Test system: KRAS patient-derived spheroids with HUVEC/MSC, viability
Test: Anticancer human tumor 941728-121-R-J1-PDC patient-derived lung adenocarcinoma cell line growth inhibition [KRAS2]
Details: for IC50: curve of first compound; for viability, T/C: stronger effect = lower value; active = viability on the fitted dose curve at most 10% of control; inactive = the rest
Procedure, shortened: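 Combination screen of spheroid viability in tumor-cell co-cultures with endothelial (HUVEC) and mesenchymal stem cell stroma. Each agent was tested in half-log dilutions, topping at clinical Cmax or at 10 microM without a known Cmax.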

[1] = second compound 0.0316 µM, first compound 0.000316 µM
[2] = second compound 0.0316 µM, first compound 0.001 µM
[3] = second compound 0.0316 µM, first compound 0.00316 µM
[4] = second compound 0.0316 µM, first compound 0.01 µM
[5] = second compound 0.0316 µM, first compound 0.0316 µM
[6] = second compound 0.1 µM, first compound 0.000316 µM
[7] = second compound 0.1 µM, first compound 0.001 µM
[8] = second compound 0.1 µM, first compound 0.00316 µM
[9] = second compound 0.1 µM, first compound 0.01 µM
[10] = second compound 0.1 µM, first compound 0.0316 µM
[11] = second compound 0.316 µM, first compound 0.000316 µM
[12] = second compound 0.316 µM, first compound 0.001 µM
[13] = second compound 0.316 µM, first compound 0.00316 µM
[14] = second compound 0.316 µM, first compound 0.01 µM
[15] = second compound 0.316 µM, first compound 0.0316 µM
[16] = second compound 1 µM, first compound 0.000316 µM
[17] = second compound 1 µM, first compound 0.001 µM
[18] = second compound 1 µM, first compound 0.00316 µM
[19] = second compound 1 µM, first compound 0.01 µM
[20] = second compound 1 µM, first compound 0.0316 µM
[21] = second compound 3.16 µM, first compound 0.000316 µM
[22] = second compound 3.16 µM, first compound 0.001 µM
[23] = second compound 3.16 µM, first compound 0.00316 µM
[24] = second compound 3.16 µM, first compound 0.01 µM
[25] = second compound 3.16 µM, first compound 0.0316 µM
[26] = second compound 0.0316 µM, first compound 0.1 µM
[27] = second compound 0.1 µM, first compound 0.1 µM
[28] = second compound 0.316 µM, first compound 0.1 µM
[29] = second compound 1 µM, first compound 0.1 µM
[30] = second compound 3.16 µM, first compound 0.1 µM
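Also: spheroids exposed to agents for seven days before readout.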

CC(=O)Nc1cccc(-n2c(=O)n(C3CC3)c(=O)c3c(Nc4ccc(I)cc4F)n(C)c(=O)c(C)c32)c1 + C=CC(=O)N1CCN(c2nc(OCC3CCCN3C)nc3c2CCN(c2cccc4cccc(C)c24)C3)CC1CC#N
< 0.1 nM: IC50 (second compound 0.0316 µM) | IC50 (second compound 0.1 µM) | IC50 (second compound 0.316 µM) | IC50 (second compound 1 µM) | IC50 (second compound 3.16 µM)
inactive: viability, T/C (second compound 0.0316 µM, first compound 0.0001 µM) 31% | viability, T/C [1] 26.4% | viability, T/C [2] 25.9% | viability, T/C [3] 25.4% | viability, T/C [4] 24.2% | viability, T/C [5] 25.1% | viability, T/C (second compound 0.1 µM, first compound 0.0001 µM) 30.9% | viability, T/C [6] 26.7% | viability, T/C [7] 25.4% | viability, T/C [8] 25.5% | viability, T/C [9] 21.2% | viability, T/C [10] 22% | viability, T/C (second compound 0.316 µM, first compound 0.0001 µM) 29.2% | viability, T/C [11] 27.2% | viability, T/C [12] 23.4% | viability, T/C [13] 24.1% | viability, T/C [14] 22.1% | viability, T/C [15] 22.9% | viability, T/C (second compound 1 µM, first compound 0.0001 µM) 24% | viability, T/C [16] 22.9% | viability, T/C [17] 19% | viability, T/C [18] 21.3% | viability, T/C [19] 20% | viability, T/C [20] 22.6%
active: viability, T/C (second compound 3.16 µM, first compound 0.0001 µM) 0.84% | viability, T/C [21] 0.35% | viability, T/C [22] 1.24% | viability, T/C [23] 0.89% | viability, T/C [24] 1.14% | viability, T/C [25] 0.53%

CC(C)n1nc(-c2ccc3oc(N)nc3c2)c2c(N)ncnc21 + C=CC(=O)N1CCN(c2nc(OCC3CCCN3C)nc3c2CCN(c2cccc4cccc(C)c24)C3)CC1CC#N
active: viability, T/C [26] 11% | viability, T/C [28] 9.77% | viability, T/C [29] 10.3% | viability, T/C [21] 2.26% | viability, T/C [22] 0.92% | viability, T/C [23] 0.32% | viability, T/C [24] 0.8% | viability, T/C [25] 0.12% | viability, T/C [30] 0.23%
< 0.316 nM: IC50 (second compound 0.0316 µM) | IC50 (second compound 0.1 µM) | IC50 (second compound 0.316 µM) | IC50 (second compound 1 µM) | IC50 (second compound 3.16 µM)
inactive: viability, T/C [1] 35.4% | viability, T/C [2] 32.9% | viability, T/C [3] 24.6% | viability, T/C [4] 17.3% | viability, T/C [5] 11.5% | viability, T/C [6] 35.3% | viability, T/C [7] 28.8% | viability, T/C [8] 28% | viability, T/C [9] 15.9% | viability, T/C [10] 11.1% | viability, T/C [27] 12.5% | viability, T/C [11] 38.2% | viability, T/C [12] 33.9% | viability, T/C [13] 26.6% | viability, T/C [14] 16.8% | viability, T/C [15] 13% | viability, T/C [16] 33.1% | viability, T/C [17] 29% | viability, T/C [18] 20% | viability, T/C [19] 11.9% | viability, T/C [20] 9.99%

COC(=O)c1ccc2c(C(=Nc3ccc(N(C)C(=O)CN4CCN(C)CC4)cc3)c3ccccc3)c(O)[nH]c2c1 + C=CC(=O)N1CCN(c2nc(OCC3CCCN3C)nc3c2CCN(c2cccc4cccc(C)c24)C3)CC1CC#N
inactive: viability, T/C [5] 30.6% | viability, T/C [26] 26.9% | viability, T/C (second compound 0.0316 µM, first compound 0.316 µM) 23.9% | viability, T/C (second compound 0.0316 µM, first compound 1 µM) 22.5% | viability, T/C (second compound 0.0316 µM, first compound 3.16 µM) 8.16% | viability, T/C [10] 31.4% | viability, T/C [27] 27% | viability, T/C (second compound 0.1 µM, first compound 0.316 µM) 23.2% | viability, T/C (second compound 0.1 µM, first compound 1 µM) 18.1% | viability, T/C [15] 29.8% | viability, T/C [28] 26.9% | viability, T/C (second compound 0.316 µM, first compound 0.316 µM) 23.7% | viability, T/C (second compound 0.316 µM, first compound 1 µM) 18.1% | viability, T/C [20] 24.2% | viability, T/C [29] 23.9% | viability, T/C (second compound 1 µM, first compound 0.316 µM) 23.4% | viability, T/C (second compound 1 µM, first compound 1 µM) 13%
active: viability, T/C (second compound 0.0316 µM, first compound 10 µM) 6.26% | viability, T/C (second compound 0.1 µM, first compound 3.16 µM) 4.92% | viability, T/C (second compound 0.1 µM, first compound 10 µM) 5.67% | viability, T/C (second compound 0.316 µM, first compound 3.16 µM) 4.34% | viability, T/C (second compound 0.316 µM, first compound 10 µM) 3.09% | viability, T/C (second compound 1 µM, first compound 3.16 µM) 0.56% | viability, T/C (second compound 1 µM, first compound 10 µM) 0.29% | viability, T/C [25] 0.27% | viability, T/C [30] 0.31% | viability, T/C (second compound 3.16 µM, first compound 0.316 µM) 0.12% | viability, T/C (second compound 3.16 µM, first compound 1 µM) 0.11% | viability, T/C (second compound 3.16 µM, first compound 3.16 µM) 0.07% | viability, T/C (second compound 3.16 µM, first compound 10 µM) 0.11%
< 31.6 nM: IC50 (second compound 0.0316 µM) | IC50 (second compound 0.1 µM) | IC50 (second compound 0.316 µM) | IC50 (second compound 1 µM) | IC50 (second compound 3.16 µM)
